Reference: patent US20240209011A1, “HETEROAROMATIC PHOSPHONIUM SALTS FOR TREATING CANCER” (FLORATEK PHARMA S.A., priority 2021, published 2024)

Assays:
Format in all cases: cell-based
brain cancer cell = experiment: Activity against brain cancer cells; conditions: brain cancer cell growth; Tables 4A-4D
Protocol: (§1) Antitumor activity of the compounds and doxorubicin as a positive control was assessed by using the CellTiter-Blue Cell Viability Assay (Promega, #G8082) or CellTiter-Glow® Luminescent Cell Viability assay (Promega #G7572) according to the manufacturer's instructions. The compounds were tested at 5 or 6 concentrations in half-log increments (highest concentration 30 μM or 100 μM) in duplicate or triplicate well conditions.
(§2) Tumor cells were grown at 37° C. in a humidified atmosphere with 5% CO2 in RPMI 1640 or DMEM medium, supplemented with 10% (v/v) fetal calf serum and 50 μg/ml gentamicin for up to 20 passages, and were passaged once or twice weekly. Cells were harvested using TrypLE or PBS buffer containing 1 mM EDTA, and the percentage of viable cells is determined using a CASY Model TI cell counter (OMNI Life Science). Cells were harvested from exponential phase cultures, counted and plated in 96 well flat-bottom microtiter plates at a cell density depending on the cell line's growth rate (4,000-20,000 cells/well depending on the cell line's growth rate, up to 60,000 for hematological cancer cell lines) in RPMI 1640 or DMEM medium supplemented with 10% (v/v) fetal calf serum and 50 μg/ml gentamicin (140 μl/well). Cultures were incubated at 37° C. and 5% CO2 in a humidified atmosphere. After 24 h, 10 μl of test compounds or control medium were added, and left on the cells for another 72 h. Compounds were serially diluted in DMSO, transferred in cell culture medium, and added to the assay plates. The DMSO concentration was kept constant at <0.3% v/v across the assay plate. Viability of cells was quantified by the CellTiter-Blue® cell viability assay (Promega G8081) or CellTiter-Glow® Luminescent Cell Viability assay (Promega #G7572). Fluorescence (FU) was measured by using the EnSpire® multimode plate reader (Perkin Elmer) (excitation X=570 nm, emission λ=600 nm). Luminescence was measured with a microplate luminometer (Promega or PerkinElmer).
(§3) Sigmoidal concentration-response curves were fitted to the data points (test-versus-control, T/C values) obtained for each tumor model using 4 parameter non-linear curve fit (Charles River DRS Datawarehouse Software) or with GraphPad prism 5.02 software. IC50 values are reported as absolute IC50 values, being the concentration of test compound at the intersection of the concentration-response curves with T/C=50% Cell lines tested are presented in Table 1.

breast cancer cell = experiment: Activity against breast cancer cells; conditions: breast cancer cell growth; Tables 5A and B
Protocol: as §1, §2, §3

colon cancer cell = experiment: Activity against colon cancer cells; conditions: colon cancer cell growth; summary of Tables 7A-7D
Protocol: as §1, §2, §3

leukaemia cell = experiment: Activity against leukaemia cells; conditions: leukaemia cell growth; Tables 13A and 13B
Protocol: as §1, §2, §3

22Rv1 = experiment: Cell viability assay (CellTiter-Blue/CellTiter-Glow); conditions: Homo sapiens; prostate carcinoma cell line 22Rv1; absolute IC50; 72 h
Protocol: as §1, §2, §3

HCT-116 = experiment: as above; conditions: Homo sapiens; colon carcinoma cell line HCT-116; absolute IC50; 72 h
Protocol: as §1, §2, §3

HL-60 = experiment: as above; conditions: Homo sapiens; leukaemia cell line HL-60; absolute IC50; 72 h
Protocol: as §1, §2, §3

LNCaP = experiment: as above; conditions: Homo sapiens; prostate carcinoma cell line LNCaP; absolute IC50; 72 h
Protocol: as §1, §2, §3

LoVo = experiment: as above; conditions: Homo sapiens; colon carcinoma cell line LoVo; absolute IC50; 72 h
Protocol: as §1, §2, §3

MCF-7 = experiment: as above; conditions: Homo sapiens, MCF7; breast carcinoma cell line MCF-7; absolute IC50; 72 h
Protocol: as §1, §2, §3

MDA-MB-468 = experiment: as above; conditions: Homo sapiens; breast carcinoma cell line MDA-MB-468; absolute IC50; 72 h
Protocol: as §1, §2, §3

PC-3 = experiment: as above; conditions: Homo sapiens; prostate carcinoma cell line PC-3; absolute IC50; 72 h
Protocol: as §1, §2, §3

U-87 = experiment: as above; conditions: Homo sapiens, U-87 MG; brain carcinoma cell line U-87; absolute IC50; 72 h
Protocol: as §1, §2, §3

ovarian cancer cell = experiment: Activity against ovarian cancer cells; conditions: ovarian cancer cell growth; Tables 18A-18C
Protocol: as §1, §2, §3

pancreatic cancer cell = experiment: Activity against pancreatic cancer cells; conditions: pancreatic cancer cell growth; Table 19A
Protocol: as §1, §2, §3

prostate cancer cell = experiment: Activity against prostate cancer cells; conditions: prostate cancer cell growth; text summary of Table 21
Protocol: as §1, §2, §3

skin melanoma PDX = experiment: Activity against skin melanoma PDX; conditions: skin melanoma PDX growth; text summary of Table 22
Protocol: PDX-derived cell cultures were obtained from tumors explanted from mice and isolated by mechanical and enzymatic dissociation. […] Cells were harvested and seeded in 96-wells plates at a density of 1.25 to 5×10^3 cells/well for cytotoxicity assays. Cells were incubated 48 h at 37° C. prior to addition of test molecules and vehicle (DMSO, 0.1%) at desired final concentrations. Cell viability was assessed before drugs' addition (To) and 5 days after test molecules addition by measuring ATP cell content using CellTiter-Glo® Luminescent Cell Viability Assay (Promega) according to the manufacturer's instructions. Luciferase activity was measured on a luminometer (PerkinElmer® EnVision™). Each concentration of compounds was tested in triplicate.
Viability was calculated as a percentage of ATP value compared to vehicle treated controls.
For PDX primary cell cultures, the tumour tissue was washed with PBS containing antibiotic-antimycotic and non-tumour tissue and necrotic tumour tissues were separated. The tumour tissue was transferred to a new dish and cut into 1-2 mm^3 fragments, resuspended in RPMI-1640 medium and centrifuged at 1,200 rpm for 6 min at room temperature. The pelleted material was resuspended with 15 mL of Tumour Cell Digestion Solution and incubated at 37° C. for 1 hour with agitation. Following further addition of media, centrifugation and passage through a […] cell strainer, the homogenous cell mixture was layered onto 15 mL of Ficoll-Paque PLUS in a 50 mL conical tube and centrifuged for 15 min at 1,600 rpm. The interface cells were collected, washed with media, separated by centrifugation at 1,200 rpm. The cell pellet was resuspended in serum free media supplemented with growth factors. 10,000 cells/wells were plated in a 96 well plate and incubated at 37° C., 5% CO2, 95% air and 100% relative humidity overnight. The cytotoxicity assay was conducted as above. IC50 values represent absolute IC50.

IC50 (U-87)	SMILES	IC50 (brain cancer cell)	IC50 (breast cancer cell)	IC50 (colon cancer cell)	IC50 (leukaemia cell)	IC50 (22Rv1)	IC50 (HCT-116)	IC50 (HL-60)	IC50 (LNCaP)	IC50 (LoVo)	IC50 (MCF-7)	IC50 (MDA-MB-468)	IC50 (PC-3)	IC50 (ovarian cancer cell)	IC50 (pancreatic cancer cell)	IC50 (prostate cancer cell)	IC50 (skin melanoma PDX)
0.87 µM	O=c1cc(-c2ccc(CCCC[P+](c3ccccc3)(c3ccccc3)c3ccccc3)cc2)oc2c3c(ccc12)OCO3.[Br-] [SND123, 4-[4-(6-oxo-[1,3]dioxolo[4,5-h]chromen-8-yl)phenyl]butyl-triphenylphosphonium bromide]	< 20 µM	< 20 µM	< 20 µM	< 20 µM	1.49 µM	2.25 µM	1.08 µM	1.37 µM	1.7 µM	6.87 µM	0.36 µM	1.89 µM	< 20 µM	< 20 µM	< 10 µM	< 10 µM
1.76 µM	O=c1cc(-c2ccc(CCCC[P+](c3ccccc3)(c3ccccc3)c3ccccc3)cc2)oc2c(O)c(O)ccc12 [SND118, 4-[4-(7,8-dihydroxy-4-oxo-chromen-2-yl)phenyl]butyltriphenyl-phosphonium bromide]	< 20 µM	< 20 µM	< 20 µM	< 20 µM	5.1 µM	1.53 µM	0.29 µM	1.87 µM	7.9 µM	0.86 µM	0.32 µM	5.3 µM	< 20 µM	< 20 µM	< 10 µM	–
–	CCNC(=O)Oc1ccc2c(=O)cc(-c3ccc(CCCC[P+](c4ccccc4)(c4ccccc4)c4ccccc4)cc3)oc2c1O.[Br-] [SND126A, 4-[4-[7-(Ethylcarbamoyloxy)-8-hydroxy-4-oxo-chromen-2-yl]phenyl]butyltriphenylphosphonium bromide]	< 20 µM	< 20 µM	< 20 µM	< 20 µM	2.39 µM	3.56 µM	0.58 µM	1.95 µM	2.94 µM	12.9 µM	0.56 µM	2.91 µM	< 20 µM	< 20 µM	< 10 µM	< 10 µM
5.4 µM	COc1c(O)ccc2c(=O)cc(-c3ccc(CCCC[P+](c4ccccc4)(c4ccccc4)c4ccccc4)cc3)oc12.[Br-] [SND140, (4-(4-(7-hydroxy-8-methoxy-4-oxo-4H-chromen-2-yl)phenyl)butyl)triphenylphosphonium bromide]	< 20 µM	< 20 µM	< 20 µM	< 20 µM	9 µM	10.6 µM	0.9 µM	6.23 µM	16.3 µM	4.3 µM	2.8 µM	8.31 µM	< 20 µM	< 20 µM	< 10 µM	< 10 µM

SMILES	IC50 (U-87)	IC50 (brain cancer cell)	IC50 (breast cancer cell)	IC50 (colon cancer cell)	IC50 (leukaemia cell)	IC50 (22Rv1)	IC50 (HCT-116)	IC50 (HL-60)	IC50 (LNCaP)	IC50 (LoVo)	IC50 (MCF-7)	IC50 (MDA-MB-468)	IC50 (PC-3)	IC50 (ovarian cancer cell)	IC50 (pancreatic cancer cell)	IC50 (prostate cancer cell)	IC50 (skin melanoma PDX)
CCNC(=O)Oc1ccc2c(=O)cc(-c3ccc(CCCC[P+](c4ccccc4)(c4ccccc4)c4ccccc4)cc3)oc2c1OC(=O)NCC.[Br-] [SND124, 4-[4-[7,8-Bis(ethylcarbamoyloxy)-4-oxo-chromen-2-yl]phenyl]-butyltriphenylphosphonium bromide]	1.18 µM	< 20 µM	< 20 µM	< 20 µM	< 20 µM	3.4 µM	4.2 µM	0.29 µM	4 µM	21.4 µM	2 µM	0.5 µM	6.3 µM	< 20 µM	< 20 µM	< 10 µM	< 10 µM
CC(C)NC(=O)Oc1ccc2c(=O)cc(-c3ccc(CCCC[P+](c4ccccc4)(c4ccccc4)c4ccccc4)cc3)oc2c1O [SND127, 4-[4-[7-(Isopropylcarbamoyloxy)-8-hydroxy-4-oxo-chromen-2-yl]phenyl]butyltriphenylphosphonium bromide]	3.8 µM	< 20 µM	< 20 µM	< 20 µM	< 20 µM	3.3 µM	6.2 µM	1.54 µM	2 µM	8.4 µM	6.7 µM	0.6 µM	5.5 µM	< 20 µM	< 20 µM	< 10 µM	–
